Data reported in paper PMC11649115, “In vitro safety evaluation of dopamine D3R antagonist, R-VK4-116, as a potential medication for the treatment of opioid use disorder” (PLOS ONE, 2024).

Key:
CYP2C19 = CYP2C19 (Homo sapiens, UniProt P33261); assay: CYP inhibition in human liver microsomes; details: human
CYP2B6 = biological target: T1, CYP2B6 (Homo sapiens, UniProt P20813); assay: CYP inhibition in human liver microsomes; details: human
T1 sequence (P20813 1-491): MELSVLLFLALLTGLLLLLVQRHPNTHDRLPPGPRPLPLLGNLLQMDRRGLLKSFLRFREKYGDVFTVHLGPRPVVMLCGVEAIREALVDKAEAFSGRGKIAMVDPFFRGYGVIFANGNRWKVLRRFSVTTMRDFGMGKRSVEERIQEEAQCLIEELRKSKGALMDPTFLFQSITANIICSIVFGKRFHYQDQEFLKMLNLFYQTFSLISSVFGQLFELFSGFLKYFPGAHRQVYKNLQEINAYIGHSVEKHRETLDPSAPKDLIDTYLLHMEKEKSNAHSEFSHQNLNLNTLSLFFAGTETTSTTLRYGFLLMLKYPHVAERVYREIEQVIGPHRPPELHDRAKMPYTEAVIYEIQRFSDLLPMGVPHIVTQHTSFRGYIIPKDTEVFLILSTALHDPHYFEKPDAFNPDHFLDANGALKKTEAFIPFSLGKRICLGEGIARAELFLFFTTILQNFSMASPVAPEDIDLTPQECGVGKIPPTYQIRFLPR

CYP2C9 = CYP2C9 (Homo sapiens, UniProt P11712); assay: CYP inhibition in human liver microsomes; details: human
Chain of CYP2C9 (P11712 whole entry): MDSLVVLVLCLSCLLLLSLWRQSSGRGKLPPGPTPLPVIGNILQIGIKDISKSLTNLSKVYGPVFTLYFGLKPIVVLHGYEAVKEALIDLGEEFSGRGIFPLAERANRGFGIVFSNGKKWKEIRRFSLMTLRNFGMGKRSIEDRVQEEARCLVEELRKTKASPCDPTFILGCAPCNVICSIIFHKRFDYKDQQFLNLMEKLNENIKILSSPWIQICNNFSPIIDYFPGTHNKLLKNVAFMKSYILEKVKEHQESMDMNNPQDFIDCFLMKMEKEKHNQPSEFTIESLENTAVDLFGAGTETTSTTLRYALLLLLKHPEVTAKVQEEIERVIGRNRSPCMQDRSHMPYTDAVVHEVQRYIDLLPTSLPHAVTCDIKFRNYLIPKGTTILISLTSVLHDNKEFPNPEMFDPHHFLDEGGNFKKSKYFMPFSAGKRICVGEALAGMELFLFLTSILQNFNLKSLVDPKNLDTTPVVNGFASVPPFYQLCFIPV

CYP3A4 = CYP3A4 (Homo sapiens, UniProt P08684); assay: CYP inhibition in human liver microsomes
Chain of CYP3A4 (P08684 2-503): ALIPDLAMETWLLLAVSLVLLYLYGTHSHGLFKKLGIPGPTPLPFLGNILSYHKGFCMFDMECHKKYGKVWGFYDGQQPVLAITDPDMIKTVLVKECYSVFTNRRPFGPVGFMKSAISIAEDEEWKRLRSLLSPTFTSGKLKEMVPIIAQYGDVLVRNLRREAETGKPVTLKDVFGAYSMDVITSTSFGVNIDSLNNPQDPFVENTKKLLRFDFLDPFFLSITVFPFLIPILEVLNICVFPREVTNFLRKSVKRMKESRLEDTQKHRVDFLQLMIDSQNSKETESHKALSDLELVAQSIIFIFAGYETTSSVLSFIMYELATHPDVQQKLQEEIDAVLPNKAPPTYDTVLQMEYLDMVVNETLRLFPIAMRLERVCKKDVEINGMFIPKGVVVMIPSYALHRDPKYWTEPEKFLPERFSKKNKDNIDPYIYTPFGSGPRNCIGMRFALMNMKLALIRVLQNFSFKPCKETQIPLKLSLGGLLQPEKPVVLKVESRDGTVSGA

CYP1A2 = biological target: T2, CYP1A2 (Homo sapiens, UniProt P05177); assay: CYP inhibition in human liver microsomes; details: human
T2 sequence (P05177 1-516): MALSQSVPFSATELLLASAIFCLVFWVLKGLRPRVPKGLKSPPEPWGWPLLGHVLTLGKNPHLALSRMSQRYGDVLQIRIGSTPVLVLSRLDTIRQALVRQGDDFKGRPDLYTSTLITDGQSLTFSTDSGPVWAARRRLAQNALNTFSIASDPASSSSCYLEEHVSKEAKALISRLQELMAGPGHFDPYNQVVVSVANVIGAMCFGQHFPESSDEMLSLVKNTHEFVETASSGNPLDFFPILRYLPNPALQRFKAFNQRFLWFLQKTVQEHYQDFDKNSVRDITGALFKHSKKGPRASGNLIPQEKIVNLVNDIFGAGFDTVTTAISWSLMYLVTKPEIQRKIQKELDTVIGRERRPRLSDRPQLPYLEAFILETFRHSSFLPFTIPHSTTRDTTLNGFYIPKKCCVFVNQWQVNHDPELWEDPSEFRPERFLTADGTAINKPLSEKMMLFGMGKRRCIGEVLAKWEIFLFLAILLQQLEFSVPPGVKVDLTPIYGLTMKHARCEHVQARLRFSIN

CYP2C8 = biological target: T3, CYP2C8 (Homo sapiens, UniProt P10632); assay: CYP inhibition in human liver microsomes; details: human
T3 sequence (P10632 1-490): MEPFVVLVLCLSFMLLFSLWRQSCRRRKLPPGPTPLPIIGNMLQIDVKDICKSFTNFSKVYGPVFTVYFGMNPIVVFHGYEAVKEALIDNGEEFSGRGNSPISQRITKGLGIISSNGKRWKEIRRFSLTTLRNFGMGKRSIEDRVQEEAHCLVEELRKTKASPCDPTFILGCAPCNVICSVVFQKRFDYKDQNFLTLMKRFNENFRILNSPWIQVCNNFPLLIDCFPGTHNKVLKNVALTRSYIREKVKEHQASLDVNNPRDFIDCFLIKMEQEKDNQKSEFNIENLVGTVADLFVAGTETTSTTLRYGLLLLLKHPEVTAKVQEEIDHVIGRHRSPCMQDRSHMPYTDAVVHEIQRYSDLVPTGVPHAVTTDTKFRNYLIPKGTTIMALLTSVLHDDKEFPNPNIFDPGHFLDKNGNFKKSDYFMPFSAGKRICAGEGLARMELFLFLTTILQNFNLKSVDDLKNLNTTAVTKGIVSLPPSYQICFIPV

CYP2D6 = CYP2D6 (Homo sapiens, UniProt P10635); assay: CYP inhibition in human liver microsomes; details: human
Chain of CYP2D6 (P10635 whole entry): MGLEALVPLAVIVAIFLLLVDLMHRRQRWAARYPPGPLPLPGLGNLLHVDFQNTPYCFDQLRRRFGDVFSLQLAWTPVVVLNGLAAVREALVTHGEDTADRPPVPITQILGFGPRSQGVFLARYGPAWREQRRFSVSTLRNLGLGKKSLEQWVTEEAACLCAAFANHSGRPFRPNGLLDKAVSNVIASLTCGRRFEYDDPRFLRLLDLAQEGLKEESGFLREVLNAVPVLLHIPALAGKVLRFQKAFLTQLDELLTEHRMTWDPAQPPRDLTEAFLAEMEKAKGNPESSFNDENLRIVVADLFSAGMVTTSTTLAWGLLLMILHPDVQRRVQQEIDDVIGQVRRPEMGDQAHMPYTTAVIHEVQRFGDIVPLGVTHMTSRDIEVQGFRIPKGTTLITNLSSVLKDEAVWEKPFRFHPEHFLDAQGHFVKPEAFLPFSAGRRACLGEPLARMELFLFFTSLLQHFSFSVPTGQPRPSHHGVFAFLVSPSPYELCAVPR

OAT3 = biological target: T4, OAT3 (Homo sapiens, UniProt Q8TCC7); assay: Transporter mediated assay (substrate/inhibitor), MDCK-II cells; format: in vitro ADME; details: human; OAT3, No BSA, 100 μM
T4 construct: expressed in transfected cells; host or cells: MDCK-II cells
T4 sequence (Q8TCC7 1-542): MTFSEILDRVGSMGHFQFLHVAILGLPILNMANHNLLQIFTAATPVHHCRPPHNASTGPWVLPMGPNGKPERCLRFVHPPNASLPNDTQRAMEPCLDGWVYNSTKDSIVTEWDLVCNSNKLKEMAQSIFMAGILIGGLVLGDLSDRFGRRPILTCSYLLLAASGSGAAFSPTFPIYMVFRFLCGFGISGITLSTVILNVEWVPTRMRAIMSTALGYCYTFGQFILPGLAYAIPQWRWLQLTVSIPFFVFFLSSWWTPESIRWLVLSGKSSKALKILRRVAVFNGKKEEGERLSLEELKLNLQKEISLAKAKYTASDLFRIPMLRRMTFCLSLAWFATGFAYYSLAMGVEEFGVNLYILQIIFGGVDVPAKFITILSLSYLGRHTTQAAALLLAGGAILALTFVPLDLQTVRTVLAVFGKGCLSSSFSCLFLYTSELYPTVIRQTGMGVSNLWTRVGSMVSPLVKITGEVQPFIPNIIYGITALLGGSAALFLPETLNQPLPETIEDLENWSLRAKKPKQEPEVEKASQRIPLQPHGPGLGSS
Procedure: (§1) The MDCK-II cells were treated to express the transporter of interest. The transport of each probe substrate was determined by radiometric detection (Fig 1 in S1 File). […] For the uptake assay, the net transporter-mediated uptake-rate (V) of the substrate by each SLC transporter was calculated as follows: Transporter–mediatedupdaterate(pmol/min/cm^2)=(Cellularaccumulationincellsexpressingthetransporter)−(Meancellularaccumulationincontrolcells)/Surfacearea×incubationtime
(§2) Fold of activity and percent inhibition were determined as follows: Foldofactivity=(Meanuptakerate)transporterexpressingcells/(Meanuptakerate)controlcells Percentinhibition=100−100×(Transport‐mediatedupdaterate)withinhibitor/(Transport‐mediatedupdaterate)vehiclecontrol

P-gp = biological target: T5, P-gp (Homo sapiens, UniProt P08183); assay: as above; format: in vitro ADME; details: P-gp, substrate test, 0.1 µM
T5 construct: expressed in transfected cells; host or cells: MDCK-II cells
T5 sequence (P08183 whole entry): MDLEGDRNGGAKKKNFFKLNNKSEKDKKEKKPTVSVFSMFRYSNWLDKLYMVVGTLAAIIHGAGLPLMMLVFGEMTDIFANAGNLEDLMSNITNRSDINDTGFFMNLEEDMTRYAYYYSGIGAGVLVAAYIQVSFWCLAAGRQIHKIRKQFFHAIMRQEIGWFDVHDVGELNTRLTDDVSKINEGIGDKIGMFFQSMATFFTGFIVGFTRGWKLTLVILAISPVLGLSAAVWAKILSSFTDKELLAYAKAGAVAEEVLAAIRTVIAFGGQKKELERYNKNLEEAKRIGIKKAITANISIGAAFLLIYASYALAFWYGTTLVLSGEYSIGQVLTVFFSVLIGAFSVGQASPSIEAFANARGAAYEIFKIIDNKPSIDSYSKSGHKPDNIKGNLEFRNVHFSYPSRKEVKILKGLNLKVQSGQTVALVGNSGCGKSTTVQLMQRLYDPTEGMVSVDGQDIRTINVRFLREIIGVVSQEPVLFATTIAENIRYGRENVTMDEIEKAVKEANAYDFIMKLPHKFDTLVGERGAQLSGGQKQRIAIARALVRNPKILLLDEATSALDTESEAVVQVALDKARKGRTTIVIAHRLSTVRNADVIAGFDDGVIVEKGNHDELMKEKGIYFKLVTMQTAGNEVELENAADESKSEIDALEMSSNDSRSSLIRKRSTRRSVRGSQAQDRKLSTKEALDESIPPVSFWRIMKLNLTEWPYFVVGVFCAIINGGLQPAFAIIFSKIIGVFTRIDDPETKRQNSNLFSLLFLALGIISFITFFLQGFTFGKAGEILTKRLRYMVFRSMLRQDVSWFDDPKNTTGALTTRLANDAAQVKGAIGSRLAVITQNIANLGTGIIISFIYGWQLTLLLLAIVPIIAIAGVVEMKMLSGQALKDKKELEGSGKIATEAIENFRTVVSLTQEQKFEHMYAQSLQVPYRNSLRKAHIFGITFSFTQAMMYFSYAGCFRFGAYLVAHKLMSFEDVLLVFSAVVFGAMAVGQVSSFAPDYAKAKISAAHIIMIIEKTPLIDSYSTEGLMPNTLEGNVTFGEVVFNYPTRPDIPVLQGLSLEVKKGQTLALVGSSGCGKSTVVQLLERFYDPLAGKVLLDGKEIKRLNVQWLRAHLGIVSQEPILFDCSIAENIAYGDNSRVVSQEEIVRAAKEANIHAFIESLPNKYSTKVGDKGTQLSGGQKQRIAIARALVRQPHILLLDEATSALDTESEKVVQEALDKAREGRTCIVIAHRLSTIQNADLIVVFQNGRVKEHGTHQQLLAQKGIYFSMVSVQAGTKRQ
Procedure: The MDCK-II cells were treated to express the transporter of interest.
For BCRP and P-gp, the apparent permeability Papp and Efflux Ratio (ER) were calculated [16]. Net basal (B) to apical (A) flux (B → A) of the substrate transport (pmol/min/cm^2) by BCRP or P-gp was calculated by subtracting A → B flux from B → A flux.

OCT2 = biological target: T6, OCT2 (Homo sapiens, UniProt O15244); assay: as above; format: in vitro ADME; details: human, polarized monolayer of MDCK-II cells expressing OCT2; OCT2, No BSA, 1000 μM
T6 construct: expressed in transfected cells; host or cells: MDCK-II cells
T6 sequence (O15244 1-555): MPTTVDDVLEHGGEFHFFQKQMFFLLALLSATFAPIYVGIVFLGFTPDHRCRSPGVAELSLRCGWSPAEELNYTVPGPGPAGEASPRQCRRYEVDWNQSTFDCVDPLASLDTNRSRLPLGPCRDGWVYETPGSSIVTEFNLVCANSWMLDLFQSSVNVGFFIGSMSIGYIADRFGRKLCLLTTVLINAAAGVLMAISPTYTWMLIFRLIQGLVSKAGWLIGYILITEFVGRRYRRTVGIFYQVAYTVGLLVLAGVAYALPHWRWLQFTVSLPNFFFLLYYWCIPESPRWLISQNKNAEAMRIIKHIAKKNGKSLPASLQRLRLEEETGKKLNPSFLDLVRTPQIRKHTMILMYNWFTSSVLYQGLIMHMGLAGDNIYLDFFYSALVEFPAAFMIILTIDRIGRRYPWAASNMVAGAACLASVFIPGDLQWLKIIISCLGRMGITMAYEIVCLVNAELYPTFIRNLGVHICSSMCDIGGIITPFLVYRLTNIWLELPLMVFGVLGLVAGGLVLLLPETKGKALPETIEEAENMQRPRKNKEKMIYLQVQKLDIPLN
Procedure: as §1, §2

OATP1B1 = biological target: T7, OATP1B1 (Homo sapiens, UniProt Q9Y6L6); assay: as above; format: in vitro ADME; details: human, polarized monolayer of MDCK-II cells expressing OATP1B1; OATP1B1, No BSA, 100 μM
T7 construct: expressed in transfected cells; host or cells: MDCK-II cells
T7 sequence (Q9Y6L6 1-691): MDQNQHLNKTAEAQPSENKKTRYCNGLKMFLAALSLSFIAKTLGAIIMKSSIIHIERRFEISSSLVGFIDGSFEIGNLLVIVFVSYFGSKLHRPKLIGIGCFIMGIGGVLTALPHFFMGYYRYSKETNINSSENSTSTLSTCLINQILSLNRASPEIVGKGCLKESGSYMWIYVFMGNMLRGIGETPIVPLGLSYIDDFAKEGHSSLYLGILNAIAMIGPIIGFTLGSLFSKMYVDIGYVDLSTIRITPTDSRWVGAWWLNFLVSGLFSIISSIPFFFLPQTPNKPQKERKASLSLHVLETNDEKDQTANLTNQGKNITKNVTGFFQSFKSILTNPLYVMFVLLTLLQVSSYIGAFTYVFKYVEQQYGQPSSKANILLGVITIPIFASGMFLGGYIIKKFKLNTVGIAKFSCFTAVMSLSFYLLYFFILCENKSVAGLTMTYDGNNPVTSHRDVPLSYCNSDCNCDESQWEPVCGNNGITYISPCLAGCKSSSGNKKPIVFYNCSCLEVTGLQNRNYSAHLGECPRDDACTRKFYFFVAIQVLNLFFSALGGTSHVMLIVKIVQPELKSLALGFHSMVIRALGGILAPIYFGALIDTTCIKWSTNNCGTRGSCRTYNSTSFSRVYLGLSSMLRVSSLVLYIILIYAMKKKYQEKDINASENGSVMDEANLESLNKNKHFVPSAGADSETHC
Procedure: as §1, §2

OATP1B3 = biological target: T8, OATP1B3 (Homo sapiens, UniProt Q9NPD5); assay: as above; format: in vitro ADME; details: human, polarized monolayer of MDCK-II cells expressing OATP1B3; OATP1B3, No BSA, 100 μM
T8 construct: expressed in transfected cells; host or cells: MDCK-II cells
T8 sequence (Q9NPD5 1-702): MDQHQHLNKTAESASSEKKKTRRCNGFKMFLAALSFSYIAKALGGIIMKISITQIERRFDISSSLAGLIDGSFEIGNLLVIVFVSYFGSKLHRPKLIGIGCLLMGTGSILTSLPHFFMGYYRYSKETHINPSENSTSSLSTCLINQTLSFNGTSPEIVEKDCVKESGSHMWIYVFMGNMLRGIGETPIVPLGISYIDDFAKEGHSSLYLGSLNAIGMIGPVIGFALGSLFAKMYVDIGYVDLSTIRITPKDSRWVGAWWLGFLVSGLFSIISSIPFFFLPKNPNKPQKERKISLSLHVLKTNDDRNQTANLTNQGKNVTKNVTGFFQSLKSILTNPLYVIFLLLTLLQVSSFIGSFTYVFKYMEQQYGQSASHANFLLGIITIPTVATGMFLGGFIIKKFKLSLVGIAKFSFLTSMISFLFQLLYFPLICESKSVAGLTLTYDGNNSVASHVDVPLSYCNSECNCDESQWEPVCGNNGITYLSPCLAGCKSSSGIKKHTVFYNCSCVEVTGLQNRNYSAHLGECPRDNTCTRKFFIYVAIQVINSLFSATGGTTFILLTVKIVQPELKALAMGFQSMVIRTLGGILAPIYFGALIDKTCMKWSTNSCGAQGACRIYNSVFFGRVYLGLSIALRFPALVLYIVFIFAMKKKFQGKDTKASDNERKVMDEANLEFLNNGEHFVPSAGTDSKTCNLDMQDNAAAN
Procedure: as §1, §2

[1] = CYP activity (% of Control) 3A4 (Midazolam), substrate midazolam
[2] = CYP activity (% of Control) 3A4 (Testosterone), substrate testosterone

Chain of CYP2C19 (P33261 whole entry): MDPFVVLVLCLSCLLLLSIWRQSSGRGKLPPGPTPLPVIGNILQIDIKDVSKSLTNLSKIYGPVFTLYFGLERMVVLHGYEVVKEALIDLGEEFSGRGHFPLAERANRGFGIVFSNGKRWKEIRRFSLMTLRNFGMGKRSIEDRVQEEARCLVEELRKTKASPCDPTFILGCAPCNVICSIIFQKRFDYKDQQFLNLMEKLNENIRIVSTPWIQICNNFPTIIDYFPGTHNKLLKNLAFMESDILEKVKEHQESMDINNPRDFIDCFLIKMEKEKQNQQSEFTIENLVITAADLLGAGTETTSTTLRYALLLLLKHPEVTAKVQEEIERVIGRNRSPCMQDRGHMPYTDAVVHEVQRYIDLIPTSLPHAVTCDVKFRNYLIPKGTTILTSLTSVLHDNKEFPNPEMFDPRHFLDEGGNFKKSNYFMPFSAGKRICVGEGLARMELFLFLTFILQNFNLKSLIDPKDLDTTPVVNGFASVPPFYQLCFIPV

Q: How did the activity at 20 min, 30 µM (CYP2C19; microsomes) turn out when `C=C(C)[C@@H]1CCC2=CC(=O)C[C@@H](C)[C@]2(C)C1` [Nootkatone] was run?
A: 57.3 ± 5.7%

Q: And the activity at 20 min, 30 µM (CYP2B6; microsomes)?
A: 23.8 ± 2.7%

Q: And the activity at 20 min, 30 µM (CYP2C9; microsomes)?
A: 84.6 ± 8.5%

Q: And the activity at 20 min, 30 µM (CYP3A4; [1])?
A: 84.5 ± 4%

Q: And the activity at 20 min, 30 µM (CYP3A4; [2])?
A: 79.4 ± 5.4%

Q: What about the activity at 20 min, 30 µM (CYP1A2; microsomes) of the same compound?
A: 91.3 ± 4.8%

Q: What about the activity at 20 min, 30 µM (CYP2C8; microsomes) of the same compound?
A: 78.8 ± 12.5%

Q: And the activity at 20 min, 30 µM (CYP2D6; microsomes)?
A: 91.9 ± 8.4%

Q: Which activity at 20 min, 10 µM (CYP2C19; microsomes) does the source give for `S=P(N1CC1)(N1CC1)N1CC1` [ThioTEPA] here?
A: 108 ± 4.3%

Q: And the activity at 20 min, 10 µM (CYP2B6; microsomes)?
A: 52 ± 0.1%

Q: And the activity at 20 min, 10 µM (CYP2C9; microsomes)?
A: 92.9 ± 1.5%

Q: What about the activity at 20 min, 10 µM (CYP3A4; [1]) of the same compound?
A: 92.6 ± 2.2%

Q: What about the activity at 20 min, 10 µM (CYP3A4; [2]) of the same compound?
A: 91.4 ± 1.3%

Q: What about the activity at 20 min, 10 µM (CYP1A2; microsomes) of the same compound?
A: 93.8 ± 4.3%

Q: What about the activity at 20 min, 10 µM (CYP2C8; microsomes) of the same compound?
A: 96.8 ± 4.4%

Q: And the activity at 20 min, 10 µM (CYP2D6; microsomes)?
A: 90.7 ± 2%

Q: For `CCCN(CCC)S(=O)(=O)c1ccc(C(=O)O)cc1` [probenecid, reference compound], which inhibition at 100 µM (OAT3) is on record?
A: 95.3 ± 0.73%

Q: Which results are given for `C=C[C@H]1C[N@@]2CC[C@H]1C[C@@H]2[C@@H](O)c1ccnc2ccc(OC)cc12` [quinidine, reference compound]?
A: activity at 20 min, 2 µM (CYP2C19; human liver microsomes, probe mephenytoin): 97.7 ± 2.3%; activity at 20 min, 2 µM (CYP2B6; human liver microsomes, probe bupropion): 91.6 ± 2.4%; activity at 20 min, 2 µM (CYP2C9; human liver microsomes, probe diclofenac): 82.7 ± 1.1%; Vectorial Net Transport (B->A) - (A->B) (P-gp): 0.52 ± 0.03 pmoles/min/cm^2; Papp A→B at 0.1 µM (P-gp; human, MDCK-MDR1): 2.62 ± 0.42 ×10⁻⁶ cm/s; Papp B→A at 0.1 µM (P-gp; human, MDCK-MDR1): 80.7 ± 4.23 ×10⁻⁶ cm/s; activity at 20 min, 2 µM (CYP1A2; human liver microsomes, probe phenacetin): 88.3 ± 1%; activity at 20 min, 2 µM (CYP2C8; human liver microsomes, probe paclitaxel): 71.3 ± 2.2%; inhibition at 1000 µM (OCT2): 100 ± 0.21%; activity at 20 min, 2 µM (CYP2D6; human liver microsomes, probe bufuralol): 17.3 ± 0.2%

Q: What does the source list for `CO[C@H]1/C=C/O[C@@]2(C)Oc3c(C)c(O)c4c(O)c(c(/C=N/N5CCN(C)CC5)c(O)c4c3C2=O)NC(=O)/C(C)=C\C=C\[C@H](C)[C@H](O)[C@@H](C)[C@@H](O)[C@@H](C)[C@H](OC(C)=O)[C@@H]1C` [Rifampicin, reference compound]?
A: inhibition at 100 µM (OATP1B1): 98.3 ± 1.37%; inhibition at 100 µM (OATP1B3): 99.2 ± 0.26%
